In series [1] the test system is M. tuberculosis Erdman (TMCC107). As to the kind of experiment: Murine model of acute TB infection. It is filed as in vivo. The conditions noted are these: BALB/c mice, subcutaneous injection 400 mg/kg daily, 12 consecutive days.
The nature of series [2]: Single ascending maximum tolerated dose study in rat. The conditions noted are these: female, Sprague-Dawley, rat, in vivo, iv. The series is classed as in vivo. The procedure:
Several compounds were assessed in single ascending maximum tolerated studies. The compounds assessed were 1810; 3408, a prodrug form of compound 1810; 1599, a chloro homologue of compound 1810; and gentamicin, an antimicrobial associated with ototoxicity. The study was carried out in female Sprague-Dawley rats (n=3 per group). All the drug solutions were prepared in water and PLASMA-LYTE A (50:50; […] was obtained from Baxter Healthcare Corporation, Deerfield, Ill.). Each group of rats were fasted overnight with access to water aJ libitum and a fixed volume (2 mL) of drug-containing solution was administered via the jugular vein catheter. Food was withheld for 3 h post dosing. Different phases of the study were classified on five different speeds of i.v, administration; Phase 1: 5 sec, Phase 2: 30 sec, Phase 3: 5 min, Phase 4: 15 min, Phase 5: 30 min. In the first and second phases, a set of predefined dose levels: 10, 25, 50, 75, 100, 150, 300, 350, 400, 450 and 500 mg/kg. Escalation to the next higher dose was conditional upon absence of signs of acute toxicity following the immediate lower dose over a 24 h period. All animals were monitored by visual inspection focused on focus on changes in skin, fur, eyes, and also respiratory, circulatory, autonomic and central nervous systems, along with somatomotor activity and behavior pattern, including tremors, convulsions, salivation, diarrhea, lethargy, sleep and coma. A dose level was deemed an MTD if […] of acute toxicity were observed and that dose was chosen for the second phase of the study where the process was repeated to determine a toxic dose. For third, fourth and fifth phases, dosing solution was infused by a Instech tethering system (Instech Laboratories Inc., Plymouth Meeting, Pa.) where the animal is freely moving within its cage, the catheter connection is held in place by a vascular access harness and a swivel system, and the drug administration is performed via a Harvard Apparatus programmable syringe pump. After dosing, the tether was removed immediately after completion of the infusion and the catheter was flushed with (100 μL) PlasmaLyte A. Surviving animals from the previous dose with no signs of toxicity were re-used in either phases of these studies upon allowing a one day drug washout period.

Series [3] has as its system M. tuberculosis H37Rv. The series can be described thus: Minimum inhibitory concentration (MIC), microbroth dilution. It is filed as cell-based. Particulars: Mycobacterium tuberculosis, 168 h; M. tuberculosis H37Rv, 7 days, 37° C.; read-out: MIC (H37Rv). For orientation: In broth dilution the organism is exposed to a series of concentrations in liquid medium.
Series [4] is described as follows: Pharmacokinetic study in rat. The series is classed as in vivo, Sprague-Dawley rats. Particulars: male, Sprague-Dawley, in vivo, iv, 10 mg/kg. The procedure:
LC-MS Method 1. Quantitative determination of the amount of a disclosed compound present in blood, plasma, or urinary can be determined by LC-MS/MS methods. Briefly, a suitable method involves use of calibrants (0.976, 1.95, 3.91, 7.81, 15.63, 31.25, 62.5, 125, 250, 500, 1000 ng/mL) were in sample matrix (e.g., rat plasma, blood or urine). A separate solution of disclosed compound (independent of calibrants) is used to prepare quality controls. Appropriate volumes of working solutions are added to the sample matrix to yield the final concentrations of 1, 50, 1000 ng/mL. Linearity for calibrants in duplicate is assessed by subjecting the spiked concentrations and the respective peak areas to least-square linear regression analysis with and without intercepts, and a weighted least-square regression (1/x or 1/x^2). The lowest limit of quantitation (LLOQ) in the standard curve measured with acceptable accuracy and precision for a disclosed compound from rat plasma has been previously established as 0.976 ng/mL for a representative compound, 1810. All samples are precipitated by the addition of 4-volumes (100 μL) of IS, 1369 (10 ng/mL) in methanol to a volume (25 μL) of plasma/urine test sample. The samples are vortexed (Fisher scientific, USA) for 30 sec and centrifuged at 10,000×g for 10 min at 4° C. and the supernatants are collected for LC-MS/MS analysis. Chromatographic separation is carried out using a Shimadzu Nexera XR (LC-20ADXR) liquid chromatograph (Shimadzu Corporation, USA) consisting of two pumps, online degasser, system controller and an auto sampler. Mobile phase consisting of a) water with 1.6% nonafluoropentanoic acid and 0.7% formic acid b) 90% acetonitrile with 0.8% nonafluoropentanoic acid and 0.35% formic acid can be used at a flow rate of 0.5 rnLirnin in gradient mode. A Waters® Symmetry ® 3.5μ C8, 50×2.1 mm column (Waters, Milford, Mass.) is used for the separation. Samples (5 μL) are injected on column and the eluate is provided directly to an API 5500 triple quadruple mass spectrometer (Applied Biosystems, Foster City, Calif.) equipped with a turbospray ion source operated in the positive ion mode. The optimized multiple reactions monitoring (MRM) conditions for 3408 (549.2A207.1), 1810 (469.2^207.1) and IS (418.3^207.1) are monitored with a declustering potential of 45 V and collision energy of 25 eV. Data are acquired and processed with Analyst software version 1.6.2 (Applied Biosystems, Foster City, Calif.).
Pharmacokinetic assessment of the disclosed compounds can be determined in a rat model as described herein. Briefly, catheterized male Sprague-Dawley rats from Harlan Bioscience (Indianapolis, Ind.), weighing 200-250 g, are kept at a 12 h light/dark cycle with access to food and water ad libitum. The procedures are approved by the Institutional Animal Care and Use Committee of the University of Tennessee Health Science Center. Formulations of a disclosed compound are prepared in water (50%) and PlasniaLyte A (50%). Test compound can be administered either via intravenous route (10 mg/kg) via femoral vein catheter with the study conducted using a group of 6 rats. Blood (250 μL) was collected via the jugular vein catheter at 0.08, 0.25, 0.5, 0.75, 1, 1.5, 2, 4, 6, 8, 10, 24 and 48 h after drug administration. Plasma was immediately separated by centrifugation (6,000×g for 10 min at 4° C.) and stored at −70° C. until analysis. The plasma concentration was determined as described herein above in LC-MS Method 1, and plasma concentration-time courses were fitted to a non-compartmental model using Phoenix WinNonlin 7.0 (Certara L. P., Princeton, NJ). Area under the concentration-time profile curve (AUC) was calculated by the log trapezoidal rule by log-linear regression and extrapolated to infinity by addition of the value Ct/λZ, where Ct is the concentration at the last time point, and λZ the terminal slope (determined by linear regression) of the log concentration-time curve. […]

For series [5], the target named is Mycobacterium smegmatis 70S bacterial ribosomes. The series can be described thus: Ribosomal inhibition assay (luciferase-based protein synthesis inhibition). The series is classed as biochemical. Particulars: purified M. smegmatis 70S ribosomes, firefly luciferase mRNA. The procedure:
In vitro activity was also assessed using a ribosomal inhibition assay. Briefly, luciferase-based protein synthesis inhibition assays were performed in translation reaction as described previously (Bruell, et al. Biochemistry. 2008 47 (34), 8828-8839), using purified Mycobacterium smegmatis 70S bacterial ribosomes and firefly luciferase mRNA prepared in vitro using T7 RNA polymerase. IC50 values represent the drug concentration that inhibits luciferase activity by 50%.

The source of these data is US20210388012A1, “METHODS AND COMPOSITIONS FOR PRODRUG FORMS OF SPECTINOMYCIN AND SPECTINAMIDE ANALOGS” (priority 2018, published 2021).

What is called MTD is the largest dose that counted as tolerated. For orientation: MIC means the lowest concentration that inhibits growth of the organism. A word on the AUC: it is concentration integrated over time. High values mean more exposure, low ones less exposure. The Cmax is the highest concentration seen after dosing. Usually Vss stands for a proportionality between amount in the body and measured concentration, not a real space. Lower therefore signals little distribution into tissue. The t½ is how long it takes for the measured level to halve.

In brackets after ≈: the same amount, converted by molar mass. Like-named read-outs stand apart in the source and are kept apart here.

For `CN[C@@H]1[C@H](O)[C@H](NC)[C@H]2O[C@]3(O)[C@H](O[C@@H]2[C@H]1O)O[C@H](C)C[C@H]3NC(=O)Cc1ccc(O)cn1` [Compound 1810, 2-(5-hydroxypyridin-2-yl)-N-((2R,4R,4aS,5aR,6S,7S,8R,9S,9aR,10aS)-4a,7,9-trihydroxy-2-methyl-6,8-bis(methylamino)decahydro-2H-benzo[b]pyrano[2,3-e] [1,4]dioxin-4-yl)acetamide], the “Efficacy in mouse model of acute tuberculosis infection (lung CFU, FIG. 1)” value in series [1] is “similarly active”. Besides, the MTD at 24 h is 200 to 350 mg/kg in series [2]; 200 mg/kg in series [2] (female Sprague-Dawley rats, 5 second IV bolus, read-out: MTD); 200 mg/kg in series [2] (female Sprague-Dawley rats, 30 second IV bolus, read-out: MTD); 350 mg/kg in series [2] (female Sprague-Dawley rats, 5 minute IV infusion, read-out: MTD); greater than 500 mg/kg in series [2] (female Sprague-Dawley rats, 15 minute IV infusion, read-out: MTD). Also, the minimal inhibitory concentration (MIC) in series [3] came to 0.8 µg/mL (≈ 1.71 µM). In series [4], this molecule gave an AUC of 22000 ng·h/mL. In series [4], this molecule registered a CL of 7.72 mL/min/kg. In series [4], this molecule gave a Cmax of 47000 ng/mL. This molecule also returned a distribution volume (Vss) in series [4] of 0.494 L/kg. Further, the t½ in series [4] came out at 23.5 min. In addition, the “IC50 (M. smegmatis)” value in series [5] stood at 0.84 µg/mL (≈ 1.79 µM).
